ChEMBL document CHEMBL4052743, “Oxindole-based intraocular pressure reducing agents” (Bioorg Med Chem Lett, 2017)
Activity calls are given as the source filed them. The rule behind the calls is not given here.

How the values were obtained:
Oryctolagus cuniculus [1] = organism: Oryctolagus cuniculus; assay: (§1) Reduction in intraocular pressure in Chinchilla rabbit assessed as maximum effective time required for reduction of intraaocular pressure at 0.1% after application of one drop (0.06 ml) of solution containing active compound/vehicle every hour (during 6 hours and after 24 hours) by automatic tonometry; assay type: functional
[2] = Toxicity in rat; conditions: in vivo
Oryctolagus cuniculus [3] = organism: Oryctolagus cuniculus; assay: Reduction in intraocular pressure in Chinchilla rabbit assessed as maximal change in intraocular pressure at 0.1% after application of one drop (0.06 ml) of solution containing active compound/vehicle every hour (during 6 hours and after 24 hours) by automatic tonometry; assay type: functional
Oryctolagus cuniculus [4] = organism: Oryctolagus cuniculus; assay: as §1, with “hours) and measured after 24 hrs post dose” for “hours)”; assay type: functional
[5] = molecular target: T1, Ribosyldihydronicotinamide dehydrogenase [quinone] (Homo sapiens, UniProt P16083); assay: Inhibition of QR2 (unknown origin) using MTT and NMeH as substrates
T1 sequence (P16083 whole entry): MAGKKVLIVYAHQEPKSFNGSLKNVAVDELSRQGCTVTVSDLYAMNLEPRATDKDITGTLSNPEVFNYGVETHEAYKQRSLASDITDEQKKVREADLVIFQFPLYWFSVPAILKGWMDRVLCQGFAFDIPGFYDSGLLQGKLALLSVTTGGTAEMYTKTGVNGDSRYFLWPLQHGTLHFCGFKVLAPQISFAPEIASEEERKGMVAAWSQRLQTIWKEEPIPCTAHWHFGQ

[6] = molecular target: T2, Ribosyldihydronicotinamide dehydrogenase [quinone] (Homo sapiens) (UniProt P16083); assay: Inhibition of QR2 (unknown origin) using MTT and NMeH as substrates relative to control
T2 sequence (whole entry): T1 sequence (P16083 whole entry)

Oryctolagus cuniculus [7] = organism: Oryctolagus cuniculus; assay: as §1, with “applanation” for “automatic”; assay type: functional
Oryctolagus cuniculus [8] = organism: Oryctolagus cuniculus; assay: Reduction in intraocular pressure in Chinchilla rabbit assessed as maximal change in intraocular pressure at 0.1% after application of one drop (0.06 ml) of solution containing active compound/vehicle every hour (during 6 hours and after 24 hours) by applanation tonometry; assay type: functional; parameters: scale not given: the % may be the effect or the level left
Oryctolagus cuniculus [9] = organism: Oryctolagus cuniculus; assay: Reduction in intraocular pressure in Chinchilla rabbit assessed as maximal change in intraocular pressure at 1% after application of one drop (0.06 ml) of solution containing active compound/vehicle every hour (during 6 hours and after 24 hours) by applanation tonometry; assay type: functional
Oryctolagus cuniculus [10] = organism: Oryctolagus cuniculus; assay: Reduction in intraocular pressure in Chinchilla rabbit assessed as maximal change in intraocular pressure at 0.5% after application of one drop (0.06 ml) of solution containing active compound/vehicle every hour (during 6 hours and after 24 hours) by applanation tonometry; assay type: functional
Oryctolagus cuniculus [11] = assay: Reduction in intraocular pressure in New Zealand white rabbit at 100 mg/10 ml dosed via topical route measured after 0.5 to 6 hrs post dose by tonometry; assay type: functional; parameters: scale not given: the % may be the effect or the level left
[12] = Inhibition of MT-3 (unknown origin); parameters: species or system Homo sapiens
[13] = Binding affinity to MT-3 (unknown origin); parameters: species or system Homo sapiens
Oryctolagus cuniculus [14] = organism: Oryctolagus cuniculus; assay: as §1, with “hours) and measured after 6 hrs post dose” for “hours)”; assay type: functional
[15] = Solubility in water; assay type: physicochemical; conditions: buffer

Compound: CC(=O)Nc1cccc2c1NC(=O)C2CC#N (stereo not drawn)
- Time (Oryctolagus cuniculus [1]): inactive
- LD50 [2]: > 2400 mg/kg
- Activity (Oryctolagus cuniculus [3]): inactive
- Activity (Oryctolagus cuniculus [4]): inactive

Compound: CC(=O)NCCC1(O)C(=O)Nc2ccc(NC(C)=O)cc21 (stereo not drawn)
- Time (Oryctolagus cuniculus [1]): inactive
- LD50 [2]: > 2400 mg/kg
- Activity (Oryctolagus cuniculus [3]): inactive
- Activity (Oryctolagus cuniculus [4]): inactive

Compound: COc1ccc2c(c1)C1(CC1CNC(C)=O)C(=O)N2C (stereo not drawn)
- Time (Oryctolagus cuniculus [1]): 2 h
- LD50 [2]: > 2400 mg/kg
- IC50 [5]: 5.1 µM
- Activity (Oryctolagus cuniculus [3]): 10%
- Activity (Oryctolagus cuniculus [4]): inactive
- Imax [6]: 93.9%

Compound: N#CCC1C(=O)Nc2ccc(Br)cc21 (stereo not drawn)
- Time (Oryctolagus cuniculus [1]): inactive
- LD50 [2]: > 2400 mg/kg
- Activity (Oryctolagus cuniculus [3]): inactive
- Activity (Oryctolagus cuniculus [4]): inactive

Compound: CC(C)(C)NC[C@H](O)COc1nsnc1N1CCOCC1 [TIMOLOL]
- Time (Oryctolagus cuniculus [1]): 4 h
- Time (Oryctolagus cuniculus [7]): 3 h
- Activity (Oryctolagus cuniculus [8]): 11%
- Activity (Oryctolagus cuniculus [3]): 32%
- Activity (Oryctolagus cuniculus [4]): inactive

Compound: COc1cc(NC(C)=O)c2c(c1)C(CC#N)(OC(C)=O)C(=O)N2 (stereo not drawn)
- Time (Oryctolagus cuniculus [1]): 2 h
- LD50 [2]: > 2400 mg/kg
- Activity (Oryctolagus cuniculus [3]): 18%
- Activity (Oryctolagus cuniculus [4]): inactive

Compound: CC(=O)Nc1cc(NC(C)=O)c2c(c1)C(CC#N)(OC(C)=O)C(=O)N2 (stereo not drawn)
- Time (Oryctolagus cuniculus [1]): 2 h
- LD50 [2]: > 2400 mg/kg
- Activity (Oryctolagus cuniculus [9]): inactive
- Activity (Oryctolagus cuniculus [3]): 21%
- Activity (Oryctolagus cuniculus [10]): Active
- Activity (Oryctolagus cuniculus [4]): inactive

Compound: COC(=O)Nc1ccc2[nH]cc(CCNC(C)=O)c2c1
- Activity (Oryctolagus cuniculus [11]): 45%
- IC50 [12]: 0.058 µM
- Ki [13]: 0.065 µM

Compound: CC(=O)NCCc1cn(C)c2c(C)c(C)ccc12
- Time (Oryctolagus cuniculus [1]): inactive
- LD50 [2]: > 2400 mg/kg
- IC50 [5]: 4.5 µM
- Activity (Oryctolagus cuniculus [3]): inactive
- Activity (Oryctolagus cuniculus [4]): inactive
- Imax [6]: 97.4%

Compound: COc1ccc2c(c1)C(CC#N)C(=O)N2 (stereo not drawn)
- Time (Oryctolagus cuniculus [1]): inactive
- LD50 [2]: > 2400 mg/kg
- Activity (Oryctolagus cuniculus [3]): inactive
- Activity (Oryctolagus cuniculus [4]): inactive

Compound: COc1ccc2[nH]c(Cl)c(CCNC(C)=O)c2c1
- Time (Oryctolagus cuniculus [1]): inactive
- LD50 [2]: > 2400 mg/kg
- IC50 [5]: 13 µM
- Activity (Oryctolagus cuniculus [3]): inactive
- Activity (Oryctolagus cuniculus [4]): inactive
- Imax [6]: 91%

Compound: COc1ccc2c(c1)C1(C(=O)N2)C2CCC(C2)C1CNC(C)=O (stereo not drawn)
- Time (Oryctolagus cuniculus [1]): inactive
- LD50 [2]: > 2400 mg/kg
- IC50 [5]: 63 µM
- Activity (Oryctolagus cuniculus [3]): inactive
- Activity (Oryctolagus cuniculus [4]): inactive
- Imax [6]: 59.6%

Compound: COc1ccc2c(c1)c(CCNC(C)=O)cn2C
- Time (Oryctolagus cuniculus [1]): 2 h
- LD50 [2]: > 2400 mg/kg
- IC50 [5]: 5.7 µM
- Activity (Oryctolagus cuniculus [3]): 8%
- Activity (Oryctolagus cuniculus [4]): inactive
- Imax [6]: 102%

Compound: COc1ccc2[nH]cc(CCNC(C)=O)c2c1 [MELATONIN]
- Time (Oryctolagus cuniculus [1]): 3 h
- Time (Oryctolagus cuniculus [7]): 4 h
- Activity (Oryctolagus cuniculus [9]): inactive
- Activity (Oryctolagus cuniculus [8]): 12%
- Activity (Oryctolagus cuniculus [3]): 26 - 31%
- Activity (Oryctolagus cuniculus [4]): inactive

Compound: CC(=O)NCCC1C(=O)Nc2ccc(Br)cc21 (stereo not drawn)
- Time (Oryctolagus cuniculus [1]): inactive
- LD50 [2]: > 2400 mg/kg
- IC50 [5]: 19 µM
- Activity (Oryctolagus cuniculus [3]): inactive
- Activity (Oryctolagus cuniculus [4]): inactive
- Imax [6]: 29.9%

Compound: CC(=O)Nc1ccc2c(c1)C(O)(CC#N)C(=O)N2 (stereo not drawn)
- Time (Oryctolagus cuniculus [1]): inactive
- LD50 [2]: > 2400 mg/kg
- Activity (Oryctolagus cuniculus [3]): inactive
- Activity (Oryctolagus cuniculus [4]): inactive

Compound: CC(=O)Nc1ccc2c(c1)C(CC#N)C(=O)N2C (stereo not drawn)
- Time (Oryctolagus cuniculus [1]): inactive
- LD50 [2]: > 2400 mg/kg
- Activity (Oryctolagus cuniculus [3]): inactive
- Activity (Oryctolagus cuniculus [4]): inactive

Compound: CC(=O)Nc1ccc2c(c1)C(CC#N)C(=O)N2 (stereo not drawn)
- Time (Oryctolagus cuniculus [1]): 4 h
- LD50 [2]: > 2400 mg/kg
- Activity (Oryctolagus cuniculus [3]): 22%
- Activity (Oryctolagus cuniculus [4]): inactive

Compound: CCC(=O)Nc1cc(NC(=O)CC)c2c(c1)C(O)(CC#N)C(=O)N2 (stereo not drawn)
- Time (Oryctolagus cuniculus [1]): 4 h
- LD50 [2]: > 2400 mg/kg
- Activity (Oryctolagus cuniculus [3]): 29%
- Activity (Oryctolagus cuniculus [4]): inactive

Compound: CC(=O)NCCC1C(=O)Nc2ccc(NC(C)=O)cc21 (stereo not drawn)
- Time (Oryctolagus cuniculus [1]): inactive
- LD50 [2]: > 2400 mg/kg
- Activity (Oryctolagus cuniculus [3]): inactive
- Activity (Oryctolagus cuniculus [4]): inactive

Compound: CC(=O)Nc1ccc2c(c1)C(O)(CC(=O)O)C(=O)N2 (stereo not drawn)
- Time (Oryctolagus cuniculus [1]): 2 h
- LD50 [2]: > 2400 mg/kg
- Activity (Oryctolagus cuniculus [3]): 18%
- Activity (Oryctolagus cuniculus [4]): inactive

Compound: CCC(=O)Nc1cc(NC(=O)CC)c2c(c1)C(CC#N)(OC(=O)CC)C(=O)N2 (stereo not drawn)
- Time (Oryctolagus cuniculus [1]): 2 h
- LD50 [2]: > 2400 mg/kg
- Activity (Oryctolagus cuniculus [3]): 15%
- Activity (Oryctolagus cuniculus [4]): inactive

Compound: CC(=O)Nc1ccc2c(c1)C(CC(=O)O)C(=O)N2 (stereo not drawn)
- Time (Oryctolagus cuniculus [1]): 4 h
- LD50 [2]: > 2400 mg/kg
- Activity (Oryctolagus cuniculus [14]): Active
- solubility [15]: Soluble
- Activity (Oryctolagus cuniculus [3]): 41%

Compound: CCOC(=O)C(C(=O)O)C1C(=O)Nc2ccc(OC)cc21 (stereo not drawn)
- Time (Oryctolagus cuniculus [1]): 4 h
- LD50 [2]: > 2400 mg/kg
- Activity (Oryctolagus cuniculus [3]): 18%
- Activity (Oryctolagus cuniculus [4]): inactive
